Laboratory results from patent US20250346587A1, “NITROGEN-CONTAINING FIVE-MEMBERED HETEROCYCLIC DERIVATIVES AS CHECKPOINT KINASE 1 INHIBITOR AND USES THEREOF” (SPEROGENIX THERAPEUTICS LIMITED, priority 2022, published 2025).
Converted amounts (≈) assume the structure as drawn. Like-named read-outs stand apart in the source and are kept apart here.

Experiments:
[1] = target: CHK-1 kinase (Homo sapiens (Human), UniProt O14757); experiment: CHK-1 % inhibition kinase assay (TR-FRET); assay type: biochemical; conditions: ATP 15 μM; for inhibition at 0.03 µM / inhibition at 0.3 µM: CHK1 enzyme; for inhibition at 0.03 µM: compound 30 nM; for inhibition at 0.3 µM: compound 300 nM; for IC50: TR-FRET, read-out: CHK1 IC50
Sequence of CHK-1 kinase (O14757 whole entry): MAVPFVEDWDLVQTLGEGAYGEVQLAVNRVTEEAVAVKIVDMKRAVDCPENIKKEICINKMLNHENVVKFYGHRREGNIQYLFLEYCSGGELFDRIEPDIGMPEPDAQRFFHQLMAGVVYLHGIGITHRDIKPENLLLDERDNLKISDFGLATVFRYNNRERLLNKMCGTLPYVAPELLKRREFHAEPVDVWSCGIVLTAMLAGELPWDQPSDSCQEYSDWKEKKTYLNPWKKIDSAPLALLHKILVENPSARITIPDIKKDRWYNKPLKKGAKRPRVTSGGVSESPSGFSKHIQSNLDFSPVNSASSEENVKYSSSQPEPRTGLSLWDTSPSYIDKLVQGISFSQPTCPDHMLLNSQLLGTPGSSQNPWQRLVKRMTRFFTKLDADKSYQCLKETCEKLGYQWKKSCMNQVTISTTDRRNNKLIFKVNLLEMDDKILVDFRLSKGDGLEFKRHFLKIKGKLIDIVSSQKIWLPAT
Method: Inhibition of CHK-1 kinase or percent inhibition at defined concentrations was determined by TR-FRET assay. Kinase reactions were performed in a 20 μL volume in low-volume 384-well plates (Cat #Corning 4511). The concentration of substrate Fluorescein-CREBtide was maintained at 0.2 μM in the assay, and the kinase reaction buffer consisted of 50 mM HEPES pH 7.5, 0.01% BRIJ-35, 10 mM MgCl2, 1 mM EGTA. Serially diluted compounds (3-fold) in DMSO (0.5% in final reaction) were incubated with cocktail of CHK-1 kinase (6 nM; Cat #PR3959B, ThermoFisher), Fluorescein-CREBtide (0.2 μM; Cat #PV3508, ThermoFisher), ATP (15 μM; Cat #A1852, Sigma), and kinase reaction buffer. After 1 hour kinase reactions at room temperature, 10 μL of Detection mix (8 nM LanthaScreen® Tb-CREB [pSer133] antibody, Cat #PV3542, ThermoFisher with 20 mM EDTA in TR-FRET Buffer, Cat #PV3574, ThermoFisher) was added, and the plate was read with a plate reader (Synergy™ NEO; Biotek) for TR-FRET.
The resulting TR-FRET emission ratio was used to calculate the percent inhibition by normalizing to the control using the following formula: […]

[2] = Microsomal stability assay, human liver microsome; assay type: in vitro ADME; conditions: liver microsomes, pH 7.4, 0.2 mg/mL, 1 μM compound, 37° C., read-out: Clint HLM
Method: (§1) Incubation mixture contained 0.2 mg/mL microsomes, 1 mmol NADPH, and test compound at 1 μM in 100 mmol potassium phosphate buffer at pH 7.4. The mixtures were incubated at 37° C. for 5, 15, and 30 minutes. Aliquots of the mixtures were taken at 0, 5, 15 and 30 minutes and quenched with chilled Acetonitrile:Methanol (50:50) containing internal standard. Following completion of incubation, samples were centrifuged at 4,000 rpm at 4° C. The supernatant was analyzed by LC-MS/MS and half-life, as well as intrinsic clearance (Clint), were calculated.

[3] = Microsomal stability assay, mouse liver microsome; assay type: in vitro ADME; conditions: liver microsomes, pH 7.4, 0.2 mg/mL, 1 μM compound, 37° C., read-out: Clint MLM
Method: as §1

[4] = Microsomal stability assay, rat liver microsome; assay type: in vitro ADME; conditions: liver microsomes, pH 7.4, 0.2 mg/mL, 1 μM compound, 37° C., read-out: Clint RLM
Method: as §1

[5] = Caco-2 cell permeability assay; assay type: in vitro ADME; conditions: human; for Papp A→B at 120 min: Caco-2, A to B; for Papp A→B at 120 min / Papp B→A at 120 min: pH 7.4; for Papp B→A at 120 min: Caco-2, B to A
Method: After thawed, Caco-2 cells were cultured in the medium containing 10% FBS, 1% Sodium pyruvate, 1% NEAA and 1% Glutamax MEM, then were placed in the incubator containing 5% CO2 at 37° C., and the culture medium then was replaced every 2-3 days. When the confluence reached 80%, the subculture was carried out. Add 5 mL of 1 M HEPES to 500 mL of HBSS for preparing transport buffer (pH 7.4), and the final concentration of HEPES was 10 mM. Before the transport study (day 21-28), take out the culture medium from the cell culture plate, wash it twice with preheated HBSS buffer (10 mM HEPES, pH 7.4), and add 100 μL HBSS buffer to each well. After incubation at 37° C. for 30 minutes, Teer value was measured by cell resistance meter (Millicell-ERS2) to confirm the integrity of monolayer cells. Discard the HBSS buffer, transfer the upper plate containing the cell monolayer membrane to the corresponding receiving plate, add the test compound solution or buffer to the top (side A) and the bottom (side B) respectively, put the cell plate into the corresponding 96 well receiving plate, and add the prepared positive control compound, test compound or HBSS buffer (with 0.5% BSA) on side A or side B of the filter membrane of Transwell cell plate according to the following groups, incubate cell plates at 37° C. When incubated for 5 minutes, 8 μL sample solutions were taken from the side A and the side B respectively and add 72 μL transport buffer (diluted 10 times) as TO of the initial solution. After 120 minutes of incubation, collect the samples at both ends of the filter membrane of Transwell cell plate; take 80 μL sample solution from the receiving side as the sample on the receiving side after transport, meanwhile take 8 μL sample solution from the administration side and then mix with 72 μL transport buffer, the well-mixed solution was used as the sample on the administration side after transport. After collecting bilateral samples, tap gently, discard the remaining solution in the cell plate, wash the cell plate with transport buffer; and to each well, add 100 μL acetonitrile solution containing internal standard working solution to lyse cells; After mixing well by blowing up and down, take 80 μL per well cell lysate as the sample after cell lysis. After collecting all samples in the transport system (TO sample from receiving side and administration side), 160 μL IS/ACN solution was added to each well, 80 μL IS/ACN solution was added to the collected lysate sample, and then seal it. Shake for 10 minutes and store the sample plate at −20° C. before LC-MS/MS analysis.
The following equation are used to calculate the apparent permeability coefficient (Papp, cm/s), the efflux ratio (ER), the solution recovery (% Recovery) and the total recovery (% Total Recovery).
Where, • Vreceiver is the volume of solution at the receiving end (0.25 mL for A to B and 0.1 mL for B to A); • Vdonor is the volume of the solution at the administration end (0.1 mL for A to B and 0.25 mL for B to A); • Vlysate is the volume of cell lysate (0.1 mL); • Area is the relative surface area of the cell monolayer (0.0804 cm^2); • Time is the incubation time (7200 s); • [drug]receiver is the drug concentration (nM) at the receiving end or the control compound; • [drug]donor is the concentration of drug or control compound at the administration end (nM); • [drug]lysate is the concentration of drug or control compound in cell lysate (nM); • [drug]initial is the initial concentration of the test or control compound (nM).

[6] = Kinetic solubility assay (nephelometry); conditions: PBS, 37 °C, pH 7.4, aqueous buffer, kinetic from dmso stock
Method: (§2) Test articles were serially diluted in DMSO from concentration range of 10 mM to 0.078 mM in 96 well v-bottom dilution plate (#3363, Corning). 1 μL of test article from each well was transferred to 96 well flat bottom clear plates (#655101, Greiner) containing 99 μL of PBS at pH-7.4, which makes the test drug final concentration range from 100 μM to 0.78 μM. Samples were incubated for 1 hour at 37° C. followed by measurement of light scattering at 625 nm with a laser based micro plate Nephelometer (Nephlostar Plus, BMG Labtech). Solubility concentration (μM) was then calculated by segmental regression with Neplometer as Readout.

[7] = physchem; conditions: 37 °C, pH 7.4, aqueous buffer, kinetic from dmso stock
Method: as §2

[8] = Caco-2, pH 7.4, Caco-2, solution recovery, A to B, read-out: Recovery % A to B
[9] = Caco-2, pH 7.4, Caco-2, solution recovery, B to A, read-out: Recovery % B to A
[10] = Caco-2, pH 7.4, Caco-2, total recovery with cell lysate, A to B, read-out: Recovery % with Cell Lysate A to B
[11] = Caco-2, pH 7.4, Caco-2, total recovery with cell lysate, B to A, read-out: Recovery % with Cell Lysate B to A

| Structure (SMILES) | inhibition at 0.03 µM [1] [%] | inhibition at 0.3 µM [1] [%] | IC50 [1] [nM] | microsomal CLint at 1 μM [2] [µL/min/mg] | microsomal CLint at 1 μM [3] [µL/min/mg] | microsomal CLint at 1 μM [4] [µL/min/mg] | recovery at 120 min [5, 8] [%] | recovery at 120 min [5, 9] [%] | recovery at 120 min [5, 10] [%] | recovery at 120 min [5, 11] [%] | Papp A→B at 120 min [5] [×10⁻⁶ cm/s] | Papp B→A at 120 min [5] [×10⁻⁶ cm/s] | solubility kinetic at 1 h [6] [µM] | solubility kinetic at 1 h [7] [µM] |
| --- | --- | --- | --- | --- | --- | --- | --- | --- | --- | --- | --- | --- | --- | --- |
| N#Cc1cnc(Nc2cc(-c3ccccc3OCC3CNCCO3)on2)cn1 (stereo not drawn) [Compound 1.1, 5-(5-(2-(morpholin-2-ylmethoxy)phenyl)isoxazol-3-ylamino) pyrazine-2-carbonitrile] | 49 | 88 | 67.7 | 32 | 100 | 58 | 69 | 102 | 94.1 | 107 | 7 | 8.7 | 44 (≈ 16.6 µg/mL) | – |
| N#Cc1cnc(Nc2cc(-c3ccccc3OCC3CCNCC3)on2)cn1 [Compound 1.2, 5-(5-(2-(piperidin-4-ylmethoxy)phenyl)isoxazol-3-ylamino) pyrazine-2-carbonitrile] | 36 | 85 | 13.3 | 45 | 39 | 27 | 67.7 | 103 | 93.9 | 108 | 5.35 | 9.75 | 45.6 (≈ 17.2 µg/mL) | – |
| N#Cc1cnc(Nc2cc(-c3ccccc3OCC3CCCNC3)on2)cn1 (stereo not drawn) [Compound 1.3, 5-(5-(2-(piperidin-3-ylmethoxy)phenyl)isoxazol-3-ylamino) pyrazine-2-carbonitrile] | 50 | 97 | 7.77 | 47 | 68 | 61 | 54.7 | 103 | 89 | 107 | 3.4 | 11.2 | 100 (≈ 37.6 µg/mL) | – |
| COc1cc(C2=CCNCC2)ccc1-c1cc(Nc2cnc(C#N)cn2)on1 [Compound 1.9, 5-(3-(2-methoxy-4-(1,2,3,6-tetrahydropyridin-4-yl)phenyl)isoxazol-5-ylamino) pyrazine-2-carbonitrile] | 33 | 31 | > 10000 | 159 | 83 | 85 | – | – | – | – | – | – | – | 100 (≈ 37.4 µg/mL) |
| COc1cc(C2=CCNCC2)ccc1-c1cc(Nc2cnc(C#N)cn2)no1 [Compound 1.19, 5-(5-(2-methoxy-4-(1,2,3,6-tetrahydropyridin-4-yl)phenyl)isoxazol-3-ylamino) pyrazine-2-carbonitrile] | 15.1 | 50.5 | – | 183 | 239 | 88 | – | – | – | – | – | – | – | 27.6 (≈ 10.3 µg/mL) |
| COc1cc(C2=CCN(C)CC2)ccc1-c1cc(Nc2cnc(C#N)cn2)on1 [Compound 1.22, 5-(3-(2-methoxy-4-(1-methyl-1,2,3,6-tetrahydropyridin-4-yl)phenyl)isoxazol-5-ylamino) pyrazine-2-carbonitrile] | 13.7 | 11 | – | 169 | 313 | 142 | – | – | – | – | – | – | – | 28.4 (≈ 11 µg/mL) |
| N#Cc1cnc(Nc2cc(-c3cc4ccccc4cc3OCC3CNCCO3)[nH]n2)cn1 (stereo not drawn) [Compound 2.3, 5-(5-(3-(morpholin-2-ylmethoxy)naphthalen-2-yl)-1H-pyrazol-3-ylamino) pyrazine-2-carbonitrile] | 41 | 81 | 8.15 | 26 | 85 | 39 | – | – | – | – | – | – | 39.7 (≈ 17 µg/mL) | – |
| N#Cc1cnc(Nc2cc(-c3cc4ccccc4cc3OCC3CCNC3)[nH]n2)cn1 (stereo not drawn) [Compound 2.4, 5-(5-(3-(pyrrolidin-3-ylmethoxy)naphthalen-2-yl)-1H-pyrazol-3-ylamino) pyrazine-2-carbonitrile] | 70 | 97 | 2.34 | 33 | 142 | 94 | – | – | – | – | – | – | 7.77 (≈ 3.2 µg/mL) | – |
| N#Cc1cnc(Nc2cc(-c3cc4ccccc4cc3OCC3CCCNC3)[nH]n2)cn1 (stereo not drawn) [Compound 2.5, 5-(5-(3-(piperidin-3-ylmethoxy)naphthalen-2-yl)-1H-pyrazol-3-ylamino) pyrazine-2-carbonitrile] | 72 | 96 | 4.36 | 14 | 111 | 124 | – | – | – | – | – | – | 41.6 (≈ 17.7 µg/mL) | – |
| N#Cc1cnc(Nc2cc(-c3cc4ccccc4cc3OCCN)[nH]n2)cn1 [Compound 2.6, 5-((5-(3-(2-aminoethoxy)naphthalen-2-yl)-1H-pyrazol-3-yl)amino) pyrazine-2-carbonitrile] | 61 | 90 | 15.7 | 3 | 153 | 58 | – | – | – | – | – | – | 18.8 (≈ 6.98 µg/mL) | – |
| N#Cc1cnc(Nc2cc(-c3cc4ccccc4cc3OCCCN)[nH]n2)cn1 [Compound 2.7, 5-(5-(3-(3-aminopropoxy)naphthalen-2-yl)-1H-pyrazol-3-ylamino) pyrazine-2-carbonitrile] | 95 | 100 | 0.933 | 6 | 118 | 44 | – | – | – | – | – | – | 21.3 (≈ 8.21 µg/mL) | – |
